Measurements published in ChEMBL document CHEMBL1201862, “PubChem BioAssay data set” (2004).
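In this assay, cells in 96-well plates receive the compound at five concentrations for 48 hours. Endpoints are linearly interpolated between the surrounding concentrations. GI50 is the concentration that inhibits growth by half.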 Activity calls are given as the source filed them. No stated cut-off is given here; in the data, active = GI50 up to about 1.1 µM and inactive = higher.

Columns and labels:
Assay in all cases: NCI anticancer screen, dose series, 48 h
786-0 = test system: 786-0
HT-29 = test system: HT-29
SR = test system: SR
U-251 = test system: U-251
LOX IMVI = test system: LOX IMVI
SF-268 = test system: SF-268
OVCAR-5 = test system: OVCAR-5
HOP-92 = test system: HOP-92
SN12C = test system: SN12C
UO-31 = test system: UO-31
SK-OV-3 = test system: SK-OV-3
HCT-116 = test system: HCT-116
PC-3 = test system: PC-3
HCC 2998 = test system: HCC 2998
BT-549 = test system: BT-549
RXF 393 = test system: RXF 393
TK-10 = test system: TK-10
NCI-H460 = test system: NCI-H460

Measured: GI50

O=C1/C(=C/c2ccccc2)NC(=S)N1CN1CCCCC1
inactive: 786-0 > 100 µM | HT-29 > 100 µM | SR > 100 µM | U-251 > 100 µM | LOX IMVI > 100 µM | SF-268 > 100 µM | OVCAR-5 > 100 µM | HOP-92 > 100 µM | SN12C > 100 µM | UO-31 > 100 µM | SK-OV-3 > 100 µM | HCT-116 > 100 µM | PC-3 > 100 µM

O=C(O)C1C(C(=O)Nc2ccc3c(c2)Cc2ccccc2-3)C2(Cl)C(Cl)=C(Cl)C1(Cl)C2(Cl)Cl (configuration not stated)
inactive: HCC 2998 20.6 µM | 786-0 30.3 µM | HT-29 20.3 µM | U-251 15.2 µM | LOX IMVI 18.4 µM | SF-268 26.2 µM | OVCAR-5 20.4 µM | BT-549 19.1 µM | HOP-92 21.5 µM | SN12C 33.3 µM | UO-31 22.5 µM | RXF 393 20.5 µM | SK-OV-3 45.5 µM | TK-10 27.2 µM | HCT-116 18.7 µM | PC-3 15.6 µM

CCOC(=O)[C@@H]1ON2O[C@H](OC3CCCCC3c3ccccc3)C[C@H]3OC(=O)[C@@H]1C32 (some centres not stated)
inactive: HCC 2998 64.6 µM | 786-0 > 100 µM | HT-29 > 100 µM | SR > 100 µM | U-251 > 100 µM | LOX IMVI > 100 µM | SF-268 > 100 µM | OVCAR-5 > 100 µM | HOP-92 > 100 µM | SN12C > 100 µM | UO-31 > 100 µM | RXF 393 > 100 µM | NCI-H460 39.8 µM | SK-OV-3 > 100 µM | TK-10 > 100 µM | HCT-116 > 100 µM

Cc1cc2c(cc1Cl)SC(c1ccccc1)C(=O)NS2(=O)=O (configuration not stated)
inactive: HCC 2998 30.3 µM | 786-0 31.6 µM | HT-29 32 µM | SR 27.5 µM | U-251 23.1 µM | LOX IMVI 31.6 µM | SF-268 33.3 µM | OVCAR-5 45.9 µM | HOP-92 30.5 µM | UO-31 28.1 µM | RXF 393 31.4 µM | NCI-H460 30.3 µM | SK-OV-3 31.9 µM | TK-10 37.6 µM | HCT-116 20.5 µM | PC-3 26.4 µM

C[C@H](c1ccccc1)N1C(=O)[C@@H](O)[C@H]1[C@H](CO)OCc1ccccc1
inactive: 786-0 > 100 µM | HT-29 > 100 µM | SR > 100 µM | U-251 > 100 µM | LOX IMVI > 100 µM | SF-268 > 100 µM | OVCAR-5 > 100 µM | HOP-92 96.4 µM | SN12C > 100 µM | UO-31 > 100 µM | SK-OV-3 > 100 µM | TK-10 > 100 µM | HCT-116 > 100 µM | PC-3 > 100 µM

CN(C)/C=N/c1ccc2nonc2c1
inactive: HCC 2998 > 100 µM | 786-0 > 100 µM | HT-29 > 100 µM | SR > 100 µM | SF-268 > 100 µM | OVCAR-5 > 100 µM | SN12C > 100 µM | UO-31 > 100 µM | RXF 393 > 100 µM | NCI-H460 > 100 µM | SK-OV-3 > 100 µM | TK-10 > 100 µM | HCT-116 > 100 µM | PC-3 > 100 µM

C[C@H]1C[C@H](C)c2ccccc2N(C)/C1=N\c1ccccc1
inactive: HCC 2998 39.2 µM | 786-0 22.9 µM | HT-29 4.58 µM | SR 24.4 µM | LOX IMVI 13.7 µM | SF-268 56 µM | OVCAR-5 21.4 µM | HOP-92 8.51 µM | SN12C 36.6 µM | UO-31 39 µM | RXF 393 34.6 µM | NCI-H460 15.8 µM | TK-10 18.6 µM | HCT-116 13.3 µM | PC-3 29.9 µM

CC1(C)C(CCO)CC1n1ccc(=O)[nH]c1=O (configuration not stated)
inactive: HCC 2998 > 100 µM | 786-0 > 100 µM | U-251 > 100 µM | LOX IMVI > 100 µM | SF-268 > 100 µM | OVCAR-5 > 100 µM | HOP-92 > 100 µM | SN12C > 100 µM | UO-31 > 100 µM | RXF 393 > 100 µM | SK-OV-3 > 100 µM | TK-10 > 100 µM | HCT-116 > 100 µM | PC-3 > 100 µM

CC1OC2=N[C@@H]1C(=O)N[C@@H](C(C)C)C1=N[C@H](C(=O)N[C@@H](C(C)C)C3=N[C@H](C(=O)N[C@@H](C(C)C)C4=N[C@H](C(=O)N[C@H]2C(C)C)C(C)O4)C(C)O3)C(C)O1 (some centres not stated)
inactive: HCC 2998 > 10 µM | 786-0 > 10 µM | HT-29 > 10 µM | SR > 10 µM | U-251 > 10 µM | LOX IMVI > 10 µM | SF-268 > 10 µM | OVCAR-5 > 10 µM | HOP-92 > 10 µM | SN12C > 10 µM | UO-31 > 10 µM | RXF 393 > 10 µM | NCI-H460 > 10 µM | SK-OV-3 > 10 µM | TK-10 > 10 µM | PC-3 > 10 µM

C=CC1(C)OC2(CCN(C(=O)OCC)CC2)OC1C (configuration not stated)
inactive: HCC 2998 > 100 µM | 786-0 > 100 µM | HT-29 > 100 µM | SR > 100 µM | U-251 > 100 µM | LOX IMVI > 100 µM | SF-268 > 100 µM | OVCAR-5 > 100 µM | HOP-92 > 100 µM | UO-31 > 100 µM | RXF 393 > 100 µM | NCI-H460 > 100 µM | SK-OV-3 > 100 µM | TK-10 > 100 µM | PC-3 > 100 µM

N#C/N=C(/N)c1sc2nc3c(c(-c4ccc(Br)cc4)c2c1N)CCCC3
inactive: HCC 2998 22.1 µM | 786-0 15.7 µM | HT-29 18.5 µM | SR 2.64 µM | U-251 24.2 µM | LOX IMVI 7.93 µM | SF-268 35 µM | OVCAR-5 34.3 µM | HOP-92 21 µM | SN12C 21.5 µM | UO-31 19.9 µM | RXF 393 17.7 µM | NCI-H460 21.1 µM | SK-OV-3 28.1 µM | TK-10 33.1 µM | HCT-116 9.02 µM | PC-3 11.6 µM

c1cncc(-c2ncc3cccnc3n2)c1
inactive: HCC 2998 > 100 µM | 786-0 > 100 µM | HT-29 > 100 µM | U-251 > 100 µM | LOX IMVI > 100 µM | OVCAR-5 > 100 µM | BT-549 > 100 µM | HOP-92 > 100 µM | SN12C > 100 µM | UO-31 > 100 µM | RXF 393 > 100 µM | NCI-H460 > 100 µM | SK-OV-3 > 100 µM | TK-10 > 100 µM | HCT-116 > 100 µM | PC-3 > 100 µM

O=C1C(=c2cc3c(c4ccccc24)=NC24CCCCC2C(c2ccccc2)C=C(c2ccccc2)N34)C(=O)c2ccccc21 (configuration not stated)
inactive: 786-0 48.6 µM | HT-29 53 µM | SR 26.4 µM | U-251 36.8 µM | LOX IMVI 34.2 µM | SF-268 30.3 µM | OVCAR-5 > 100 µM | HOP-92 27.9 µM | SN12C > 100 µM | UO-31 22.9 µM | RXF 393 18.5 µM | SK-OV-3 > 100 µM | TK-10 > 100 µM | HCT-116 36.2 µM | PC-3 25.8 µM
